Molecules are shown by their SMILES.

Assay [1] has as its target T1, Wee1 kinase (Homo sapiens, UniProt P30291).
T1 construct: made in house; host or cells: Sf9 insect cells (recombinant baculovirus)
The assay is described as follows: Wee1 kinase inhibitory effect (Pharmacological Test 1). The class given is biochemical. Particulars: purified GST-tagged Wee1 kinase, Poly(Lys, Tyr) substrate, 10 μM ATP, 30° C. for 30 minutes; read-out: Weel Inhibition Activity (IC50). From the text: The following describes exemplary pharmacological tests of a compound of the present invention._Pharmacological Test 1 (Wee1 kinase inhibitory effect)
A cDNA of Wee1 kinase with glutathione-S-transferase (GST) fused at the amino terminal thereof was inserted into a baculovirus expression vector to construct a recombinant baculovirus, with which cells of an insect cell line Sf9 were infected to overexpress the target protein. The infected cells were collected and lysed, and then the GST-tagged Wee1 kinase protein was adsorbed to a glutathione column and eluted from the column with glutathione, and the active fraction was desalted in a desalting column to give a purified enzyme.
In measurement of the Wee1 kinase activity, a synthetic peptide, Poly(Lys, Tyr) hydrobromide (Lys:Tyr (4:1)) purchased from Sigma was used as the substrate.
The amount of the reaction mixture was 21.1 μL; and the composition of the reaction buffer was 50 mM Tris-HCl buffer (pH 7.4)/10 mM magnesium chloride/1 mM dithiothreitol. The purified Wee1 kinase, 2.5 μg of the substrate peptide, 10 μM of non-labeled adenosine triphosphate (ATP) and 1 μCi of [γ-^33P]-labeled ATP (2500 Ci/mmol or more) were added to the reaction buffer, and the resulting mixture was incubated at 30° C. for 30 minutes. Thereafter, 10 μL of 350 mM phosphate buffer was added to the reaction system to stop the reaction. The substrate peptide was adsorbed on a P81 paper filter 96-well plate and the plate was washed several times with 130 mM phosphate buffer, and the radioactivity thereof was counted using a liquid scintillation counter. The [γ-^33P]-labeled ATP was purchased from Amersham Bioscience, Ltd.
The addition of a test compound to the reaction system was carried out by preparing a series of dilutions of the compound with dimethyl sulfoxide (DMSO) and adding 1.1 μL of each dilution to the reaction system. As a control, 1.1 μL of DMSO was added to the reaction system.

Assay [2] deals with Cdc2 (Cdk1) tyrosine-15 phosphorylation in NCI-H1299 cells. The assay is described as follows: Inhibitory effect on Cdc2 (Cdk1) tyrosine-15 phosphorylation in cells (Pharmacological Test 2, NCI-H1299 method). Conditions: Homo sapiens, 200 nM camptothecin 16 hours, then test compound with nocodazole 8 hours, ELISA ratio of tyrosine-15-phosphorylated Cdc2 to Cdc2, read-out: Cdc2-Tyrosine 15 Phosphorylation Inhibiting Effect. The class given is cell-based. The source says:
Pharmacological Test 2 (Method for determining drug effect using cells (inhibitory effect on Cdc2 (Cdk1) tyrosine-15 phosphorylation))
Fetal bovine serum (FBS) was purchased from Morgate, Inc.; an RPMI-1640 medium and a DMEM medium were purchased from Invitrogen, Inc.; camptothecin was purchased from Sigma Co.; gemcitabine was purchased from Eli Lilly Japan K.K.; nocodazole and protease inhibitor cocktail were purchased from Sigma Co.; a rabbit anti-Cdc2 antibody and a mouse anti-Cdc2 antibody were purchased from Santa Cruz Biotechnology, Inc.; a rabbit anti-tyrosine-15-phosphorylated Cdc2 antibody and a horseradish peroxidase-labeled anti-mouse IgG antibody were purchased from Cell Signaling Technology, Inc.; and Sure Blue Reserve TMB peroxidase substrate was purchased from Kirkegaard & Perry Laboratories, Inc.
A human non-small cell lung cancer cell line (NCI-H1299) and a human colon cancer cell line (WiDr) can be obtained from American Type Culture Collection (ATCC).
In the method using NCI-H1299 cells, the cells were suspended in an RPMI-1640 medium supplemented with 10% FBS, and 100 μL of the resulting cell suspension was dispensed in a Nunclon Delta treated 96-well plastic plate purchased from Nunc, Inc. at a density of 2000 cells per well, and the plate was incubated overnight at 37° C. under an atmosphere of 5% CO2 and 95% air. Camptothecin was dissolved in dimethyl sulfoxide (DMSO) and further the resulting solution was diluted with an RPMI-1640 medium supplemented with 10% FBS. Then, 50 μL of the diluted solution was added to each well of the plate in which the cells were seeded in advance such that the final concentration of camptothecin was 200 nM, and the plate was incubated at 37° C. under an atmosphere of 5% CO2 and 95% air for 16 hours. A test compound was serially diluted with DMSO, and further diluted with an RPMI-1640 medium supplemented with 10% FBS containing 4000 nM nocodazole. Then, 50 μL of the test compound solution was added to each well of the plate in which the cells treated with camptothecin were seeded, and the plate was incubated at 37° C. under an atmosphere of 5% CO2 and 95% air for 8 hours. Then, the culture medium was removed from each well and […] of a cell lysis buffer was added to each well, and the plate was shaken at 4° C. for 2 hours, and thereafter the liquid in the plate was frozen at −80° C. and then thawed, which was used as a lysed cell solution. Cdc2 and tyrosine-15-phosphorylated Cdc2 in this lysed cell solution were measured by an enzyme-linked immunosorbent assay (ELISA method), and a ratio of tyrosine-15-phosphorylated Cdc2 to Cdc2 was calculated to determine a 50% effective concentration (EC50, nM) of the test compound for inhibition of phosphorylation in cells. The cell lysis buffer as used herein is an aqueous solution […] containing 20 mM HEPES (pH 7.5), 150 mM sodium chloride, 1 mM disodium ethylenediamine tetraacetate, 0.1% polyoxyethylene (10) octylphenyl ether, 1% protease inhibitor cocktail, 1 mM dithiothreitol, 2 mM sodium orthovanadate, 10 mM sodium fluoride and 10 mM glycerol diphosphate. The measurement of Cdc2 by the ELISA method was carried out as follows. 50 μL of a solution of a rabbit anti-Cdc2 antibody obtained by diluting the antibody to 200 times with 50 mM carbonate-bicarbonate buffer (pH 9.6) was dispensed into each well of a 96-well Maxisorb immunoplate purchased from Nunc, Inc., and the immunoplate was let stand overnight at 4° C. to immobilize the antibody thereto. Subsequently, each well was washed three times with phosphate buffered saline (PBS), and 300 μL of PBS containing 5% bovine serum albumin (5% BSA/PBS) was added to each well, and then, the immunoplate was let stand at room temperature for 2 hours. […]

T1 sequence (P30291 whole entry): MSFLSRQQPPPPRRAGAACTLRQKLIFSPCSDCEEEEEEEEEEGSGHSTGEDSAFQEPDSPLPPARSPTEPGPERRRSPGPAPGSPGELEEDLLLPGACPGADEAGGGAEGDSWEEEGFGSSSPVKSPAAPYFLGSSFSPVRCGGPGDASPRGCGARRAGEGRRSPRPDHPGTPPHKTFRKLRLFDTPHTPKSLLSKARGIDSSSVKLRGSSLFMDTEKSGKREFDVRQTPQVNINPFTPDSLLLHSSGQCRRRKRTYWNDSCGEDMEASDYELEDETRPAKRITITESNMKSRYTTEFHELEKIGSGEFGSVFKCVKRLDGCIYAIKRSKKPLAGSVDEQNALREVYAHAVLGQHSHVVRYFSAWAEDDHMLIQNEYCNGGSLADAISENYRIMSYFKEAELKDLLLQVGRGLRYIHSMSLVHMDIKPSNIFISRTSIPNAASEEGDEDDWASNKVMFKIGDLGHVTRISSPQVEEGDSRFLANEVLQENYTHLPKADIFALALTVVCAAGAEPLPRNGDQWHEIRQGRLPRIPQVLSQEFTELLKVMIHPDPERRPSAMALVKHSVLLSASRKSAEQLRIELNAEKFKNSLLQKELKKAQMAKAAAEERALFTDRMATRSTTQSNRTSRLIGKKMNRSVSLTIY

Consider `Cn1c(=O)n(-c2c(Cl)cccc2Cl)c(=N)c2cnc(Nc3ccc(N4CCN(CCO)CC4)cc3)nc21` [Example 1, 3-(2,6-Dichlorophenyl)-7-({4-[4-(2-hydroxyethyl)piperazin-1-yl]phenyl}amino)-4-imino-1-methyl-3,4-dihydropyrimido[4,5-d]pyrimidin-2(1H)-one], for which the IC50 in assay [1] was 4 nM. The EC50 in assay [2] was 71 nM.
`Cn1c(=O)n(-c2c(Cl)cccc2Cl)c(=N)c2cnc(Nc3ccc(N4CCOC(CO)C4)cc3)nc21` (stereo not shown) [Example 2, 3-(2,6-Dichlorophenyl)-7-({4-[2-(hydroxymethyl)morpholin-4-yl]phenyl}amino)-4-imino-1-methyl-3,4-dihydropyrimido[4,5-d]pyrimidin-2(1H)-one]: in assay [1], the IC50 was 2 nM. For the same compound, in assay [2], the EC50 turned out to be 86 nM.
For `CN(C)CC(=O)N1CCN(c2ccc(Nc3ncc4c(=N)n(-c5c(Cl)cccc5Cl)c(=O)n(C)c4n3)cc2)CC1` [Example 3, 3-(2,6-Dichlorophenyl)-7-[(4-{4-[(dimethylamino)acetyl]piperazin-1-yl}phenyl)amino]-4-imino-1-methyl-3,4-dihydropyrimido[4,5-d]pyrimidin-2(1H)-one], the IC50 in assay [1] was 12 nM. Moreover, the EC50 in assay [2] worked out at 45 nM.
Turning to `CN(C)CC1CN(c2ccc(Nc3ncc4c(=N)n(-c5c(Cl)cccc5Cl)c(=O)n(C)c4n3)cc2)CCO1` (stereo not shown) [Example 4, 3-(2,6-Dichlorophenyl)-7-[(4-{2-[(dimethylamino)methyl]morpholin-4-yl}phenyl)amino]-4-imino-1-methyl-3,4-dihydropyrimido[4,5-d]pyrimidin-2(1H)-one], the IC50 in assay [1] came out at 10 nM. Also, the EC50 in assay [2] came out at 34 nM.
On to `CN1CCN(c2ccc(Nc3ncc4c(=N)n(-c5c(Cl)cccc5Cl)c(=O)[nH]c4n3)cc2)CC1` [Example 5, 3-(2,6-Dichlorophenyl)-4-imino-7-{[4-(4-methylpiperazin-1-yl)phenyl]amino}-3,4-dihydropyrimido[4,5-d]pyrimidin-2(1H)-one], for which the IC50 in assay [1] turned out to be 17 nM. In assay [2], the EC50 stood at 66 nM.
The like results for `Cc1cc(Nc2ncc3c(=N)n(-c4c(Cl)cccc4Cl)c(=O)[nH]c3n2)ccc1N1CCN(C)CC1` [Example 6, 3-(2,6-Dichlorophenyl)-4-imino-7-{[3-methyl-4-(4-methylpiperazin-1-yl)phenyl]amino}-3,4-dihydropyrimido[4,5-d]pyrimidin-2(1H)-one] were, in that order, 8 nM and 25 nM.
Turning to `CN1CCN(c2ccc(Nc3ncc4c(=N)n(-c5c(Cl)cccc5Cl)c(=O)n(C)c4n3)cc2)CC1` [Example 7, 3-(2,6-Dichlorophenyl)-4-imino-1-methyl-7-{[4-(4-methylpiperazin-1-yl)phenyl]amino}-3,4-dihydropyrimido[4,5-d]pyrimidin-2(1H)-one], in assay [1], the IC50 came out at 6 nM.
As to `CN(C)[C@@H]1CCN(c2ccc(Nc3ncc4c(=N)n(-c5c(Cl)cccc5Cl)c(=O)[nH]c4n3)cc2)C1` [Example 8, 3-(2,6-Dichlorophenyl)-7-({4-[(3R)-3-dimethylaminopyrrolidin-1-yl]phenyl}amino)-4-imino-3,4-dihydropyrimido[4,5-d]pyrimidin-2(1H)-one], in assay [1], the IC50 is 17 nM. The EC50 in assay [2] is 75 nM.
In the case of `CN1CC2CCN(c3ccc(Nc4ncc5c(=N)n(-c6c(Cl)cccc6Cl)c(=O)[nH]c5n4)cc3)C2C1` (stereo not shown) [Example 9, 3-(2,6-Dichlorophenyl)-4-imino-7-{[4-(5-methylhexahydropyrrolo[3,4-b]pyrrol-1(2H)-yl)phenyl}amino)-3,4-dihydropyrimido[4,5-d]pyrimidin-2(1H)-one], in assay [1], the IC50 was 16 nM. Besides, the EC50 in assay [2] stood at 110 nM.
The like results for `CN1CCC2(CCCN(c3ccc(Nc4ncc5c(=N)n(-c6c(Cl)cccc6Cl)c(=O)[nH]c5n4)cc3)C2)C1` (stereo not shown) [Example 10, 3-(2,6-Dichlorophenyl)-4-imino-7-{[4-(2-methyl-2,7-diazaspiro[4,5]dec-7-yl)phenyl}amino)-3,4-dihydropyrimido[4,5-d]pyrimidin-2(1H)-one] were, in that order, 18 nM and 110 nM.
